Results reported in US20240417435A1, “DEFENSIN-DERIVED PEPTIDE WITH ANTIBACTERIAL ACTIVITY ALSO AGAINST MULTI-ANTIBIOTIC-RESISTANT BACTERIA” (priority 2021, published 2024).

Tests used:
[1] = test system: P. aeruginosa ATCC 27853 biofilm; assay: Biofilm formation by LIVE/DEAD imaging; type: cell-based, Pseudomonas aeruginosa; settings: 24 h static culture
Experimental: (§1) The formation of S. aureus ATCC 6538 and P. aeruginosa ATCC 27853 biofilms was also evaluated by imaging. The medium was then supplemented with various peptide concentrations (2.5, 12.5 and 25 μM) and incubated overnight, and the biofilms were stained with a FilmTracer LIVE/DEAD biofilm viability kit (Invitrogen) according to the manufacturer's instructions. The images were acquired with Cell Discoverer 7, Zeiss.

[2] = test system: S. aureus ATCC 6538 biofilm; assay: Biofilm formation and maturation, crystal violet; type: cell-based, Staphylococcus aureus; settings: concentrations slightly higher than MIC, dose-dependent, maximum activity at 125 μM
Experimental: (§2) The biofilm formation test for S. aureus ATCC 6538 and P. aeruginosa ATCC 27853 was conducted in 96-well plates, as previously reported (Merritt J H, Kadouri D E, O'Toole G A. Growing and analyzing static biofilms. Curr Protoc Microbiol. 2005; Chapter 1: Unit 1B.1.)
(§3) Briefly, the bacteria from overnight cultures were diluted and grown to 0.5 McFarland. The bacteria were diluted 1:100 and plated in each well containing 100 μL of BHI broth. To evaluate the impact of peptide γ2 on biofilm formation, the medium was supplemented with various concentrations of peptide (2.5, 12.5, 25 and 125 μM) and incubated overnight. To evaluate biofilm maturation, the bacteria of the cultures grown overnight were diluted 1:1000, and 5 μL of said bacterial suspensions was added to each well, containing 100 μL of BHI broth, and left to grow overnight. The medium was then removed and replaced with fresh medium containing various peptide concentrations (2.5, 12.5 and 125 μM). At the end of incubation, the medium was removed; the biofilms were washed twice with PBS and stained with crystal violet (1%) for 30 minutes, then resuspended in 200 μL of ethanol. The negative controls were bacteria incubated with medium only. The positive controls were bacteria incubated with medium supplemented with 0.42 μM gentamicin.

[3] = test system: peripheral blood mononuclear cells (PBMC); assay: Cytokine secretion measurement (ProcartaPlex/Luminex); type: cell-based, human; settings: PBMCs from healthy donors; 1.25 and 12.5 μM; 18 hours
Text: Supernatants for cytokine evaluation were harvested from peripheral blood mononuclear cell cultures (PBMCs) and analysed with the Invitrogen ProcartaPlex bead-based immunoassay (Invitrogen, Thermo Fisher Scientific) using the Luminex instrument platform (Luminex 200, Luminex Corporation), according to the manufacturer's instructions. xPONENT 3.1 software (Luminex) was used for acquisition and analysis of the samples.

[4] = test system: HT-1080 cells
Experimental: (§6) Parental HT-1080, HUVEC, SH-SY5Y human fibroblasts (HF) and A549 cells from Culture Cell Lines Facility CEINGE Biotecnologie Avanzate s.c.ar.l., Naples, Italy, and HeLa cells (ATCC CCL-2) stored in liquid nitrogen, were thawed by stirring the vials gently for 2 minutes in a water bath at 37° C. […]
(§7) The cells were incubated for 24 hours at 37° C. in 5% CO2 to allow them to grow and form a single layer in the flask. Cells grown to 80-95% confluency were washed with PBS, treated with 3 mL of trypsin-EDTA 1× solution, diluted, counted and seeded (4×10^3 cells/200 μl per well) in 96-well tissue-culture plates for 24 h in triplicate. The reduction in cell proliferation was evaluated with the 3-[4,5-dimethylthiazol-2-yl]-2,5-diphenyltetrazolium bromide (MTT) assay, which measures metabolic changes. […] After incubation, the presence of violet crystals, which normally indicate metabolisation of MTT, was evaluated. […] The specific stain eluted was measured with a spectrophotometer (550 nm). […] The cell inhibition percentage was determined with the following formula:
(§8) % cell inhibition=100−(Absorbance of treated cells/Absorbance of control cells)×100. […]
(§9) The mean percentage cell inhibition values for each cell line at different peptide γ2 concentrations compared with the untreated cells were analysed with One-way ANOVA.

[5] = test system: P. aeruginosa ATCC 27853 biofilm; assay: Biofilm formation and maturation, crystal violet; type: cell-based, Pseudomonas aeruginosa; settings: concentrations slightly higher than MIC, dose-dependent, maximum activity at 125 μM
Experimental: as §2, §3

[6] = test system: S. aureus ATCC 6538 biofilm; assay: Biofilm formation by LIVE/DEAD imaging; type: cell-based, Staphylococcus aureus; settings: 24 h static culture
Experimental: as §1

[7] = test system: P. aeruginosa ATCC 27853; assay: SYTOX Green absorption assay (membrane permeabilisation); type: cell-based, Pseudomonas aeruginosa
Experimental: (§4) The effect of peptide γ2 on the membrane integrity of S. aureus ATCC 6538 and P. aeruginosa ATCC 27853 was evaluated by measuring the extent of intracellular accumulation of SYTOX green (Juba M L, et al. Biochim Biophys Acta. 2015; 1848 (5): 1081-91). The cells were harvested halfway through the log phase, washed, and resuspended in 10 mM of phosphate buffer. The final density was adjusted to 5×10^7 CFU/mL. The cells were then treated with peptide γ2 (0.625, 1.25, 2.5, 12.5, 25 μM) in the presence of 200 nM SYTOX green (Invitrogen). The fluorescence increase of SYTOX green, a direct measurement of the degree of membrane permeabilisation, was monitored with a fluorescence spectrophotometer. The excitation and emission wavelengths used were 503 nm and 523 nm respectively. 5

[8] = test system: HUVEC endothelial cells; assay: Cell migration assay in Boyden chambers; type: cell-based
Experimental: (§5) Cell migration assays were conducted as previously described (Bifulco K et al., Mol Cancer There 2013; 2:1981-93), using Boyden chambers and polyvinylpyrrolidone-free polycarbonate filters with 8 μm pores inserted between a lower and upper compartment. Briefly, the cell suspension (1×10^5 viable cells/mL of serum-free medium) was seeded in each upper chamber. The lower chambers were filled with DMEM only, DMEM containing 10 nM N-formyl-methionyl-leucylphenylalanine peptide (fMLF), as positive control, or increasing peptide γ2 concentration. Incubation was conducted for 4 h at 37° C. in air humidified with 5% CO2. At the end of the assay, the cells on the lower surface of the filter were fixed with ethanol and stained with haematoxylin, and 10 random fields/filter were counted with a 200× magnification. The extent of cell migration was expressed as a percentage of baseline cell migration evaluated in the absence of chemo-attractants, taken as 100% (CTRL).

[9] = test system: HT-1080 cells; assay: Cell migration assay in Boyden chambers; type: cell-based
Experimental: as §5

[10] = test system: A549 cells; assay: Cell migration assay in Boyden chambers; type: cell-based
Experimental: as §5

[11] = test system: S. aureus ATCC 6538; assay: SYTOX Green absorption assay (membrane permeabilisation); type: cell-based, Staphylococcus aureus
Experimental: as §4

[12] = test system: HUVEC cells
Experimental: as §6, §7, §8, §9

[13] = test system: HeLa cells
Experimental: as §6, §7, §8, §9

[14] = test system: human fibroblasts (HF)
Experimental: as §6, §7, §8, §9

[15] = test system: A549 cells
Experimental: as §6, §7, §8, §9

For “Ac-CLPKRRQIGKSSTRGRKSCKK-NH2 (not fully specified (bridges); printed as Ac-CLPKRRQIGKSSTRGRKSCKK-NH2; also: oxidised (disulfide) or reduced form, both stated) [peptide γ2]”, the “smallest dose at which inhibition of biofilm formation was already evident” value [1] was 2.5 µM, the biofilm formation [2] was “significantly inhibited” and the biofilm maturation [2] was “significantly inhibited”. The IL-1 secretion [3] was “up-regulated”, the IL-6 secretion [3] was “up-regulated” and the IL-9 secretion [3] was “up-regulated”. The INF-γ secretion [3] was “up-regulated”, the cell viability [4] was “viability remained high” and the biofilm formation [5] was “significantly inhibited”. For the same substance, the biofilm maturation [5] was “significantly inhibited”, the “smallest dose at which inhibition of biofilm formation was already evident” value [6] was 2.5 µM and the “incubation time at which increased influx of SYTOX Green was seen” value [7] was 15 min. The “dose at which the peptide already effectively permeabilised the bacteria” value ([7]; SYTOX Green, dose-dependent) was 1.25 µM, the directional cell migration ([8]; HUVEC, 100 μM versus 50 μM) was “did not further increase directional cell migration” and the chemotactic effect ([8]; HUVEC, low concentrations) was “slight chemotactic effect”. The “directional migration, % of the baseline cell migration” value (from here on “directional migration, %”) ([8]; endothelial cells (HUVEC), 50 μM, 4 h) was 156%, the “directional migration, %” value ([9]; 50 μM, 4 h) was 158% and the directional cell migration ([9]; 100 μM versus 50 μM) was “did not further increase directional cell migration”. For the same substance, the chemotactic effect ([9]; low concentrations) was “slight chemotactic effect”, the “directional migration, %” value ([10]; 50 μM, 4 h) was 169% and the directional cell migration ([10]; 100 μM versus 50 μM) was “did not further increase directional cell migration”. For the same substance, the chemotactic effect ([10]; low concentrations) was “slight chemotactic effect”, the “incubation time at which increased influx of SYTOX Green was evident” value [11] was 40 min and the “dose at which the peptide already effectively permeabilised the bacteria” value ([11]; SYTOX Green, dose-dependent) was 1.25 µM. The “reduction of cell viability” value [12] was “about 20%”, the cell viability [13] was “viability remained high” and the “cell viability compared with the control cells” value ([13]; human, HeLa cells, 6 h, 40 µM) was 97%. The “reduction of cell viability” value [14] was “about 20%” and the “reduction of cell viability” value [15] was “about 20%”.
